The source of these data is US11608320B2, “Oxazolidinone hydroxamic acid derivatives” (KUWAIT UNIVERSITY, priority 2020, dated 2023).

Like-named read-outs stand apart in the source and are kept apart here.

Data set [1] addresses T1, recombinant human 5-LO enzyme (Homo sapiens, UniProt P09917).
T1 sequence (P09917 1-674): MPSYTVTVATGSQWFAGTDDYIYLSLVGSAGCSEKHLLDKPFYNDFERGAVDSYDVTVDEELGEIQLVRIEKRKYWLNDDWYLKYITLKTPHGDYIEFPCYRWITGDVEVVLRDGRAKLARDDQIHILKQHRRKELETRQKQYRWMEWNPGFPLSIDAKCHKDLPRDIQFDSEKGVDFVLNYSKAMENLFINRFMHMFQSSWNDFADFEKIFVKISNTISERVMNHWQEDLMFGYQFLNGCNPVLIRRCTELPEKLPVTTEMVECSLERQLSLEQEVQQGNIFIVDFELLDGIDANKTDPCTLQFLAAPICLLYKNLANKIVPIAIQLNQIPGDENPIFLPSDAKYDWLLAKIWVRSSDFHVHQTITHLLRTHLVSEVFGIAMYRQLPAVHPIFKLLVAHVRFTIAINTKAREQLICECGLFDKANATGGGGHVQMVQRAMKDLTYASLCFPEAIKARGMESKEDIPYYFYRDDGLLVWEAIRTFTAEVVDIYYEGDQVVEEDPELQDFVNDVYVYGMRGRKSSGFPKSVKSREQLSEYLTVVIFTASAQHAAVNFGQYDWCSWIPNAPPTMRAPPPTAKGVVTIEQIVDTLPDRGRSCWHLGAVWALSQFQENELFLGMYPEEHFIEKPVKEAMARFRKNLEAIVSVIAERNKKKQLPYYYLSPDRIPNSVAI
The data set is described as follows: Direct 5-LO inhibitory activity in a cell-free assay (H2DCF-DA fluorescence). Type of data set: biochemical. How it is done:
H2DCF-DA (60 μM) was first pre-cleaved by incubating with 450 mU/ml recombinant human 5-LO enzyme in Tris buffer (containing 50 mM Tris, pH=7.5, 2 mM EDTA, 2 mM CaCl2), 1 mM dithiothreitol (DTT) and 0.6 U/ml glutathione peroxidase) for 10 min at room temperature. […] After 10 min incubation at room temperature, the reaction was started with the addition of 50 μl of the substrate solution (Tris buffer containing 20 μM ATP and 20 μM arachidonic acid). After a further 20 min, the reaction was terminated with 100 μl acetonitrile. Fluorescence was read at 500 nm excitation and 520 emission, with Novostar® microplate reader (BMG Labtech, Offenburg, Germany). Appropriate controls, including 100 μM nordihydroguaiaretic acid (NDGA), were included to isolate only the 5-LO-attributable, NDGA-inhibitable RFU values.

In data set [2] the test system is 5-LO-dependent generation of leukotriene B4 (LTB4) from activated human whole blood. The data set is described as follows: Inhibition of LTB4 generation from LPS/FMLP-activated human whole blood. Type of data set: cell-based. The following applies: LPS-primed, FMLP-stimulated human whole blood; read-out: Inhibitory Activity IC50, Human whole blood LTB4. On the procedure:
Inhibition of LTB4 generation from human whole blood: All compounds were evaluated for inhibitory activity against 5-LO-dependent generation of leukotriene B4 (LTB4) from activated human whole blood. With ethical approval from the Health Sciences Center Ethical Committee of Kuwait University, heparinized fresh human blood samples from apparently healthy individuals were obtained from the Kuwait Central Blood Bank. Aliquots of 185 μl of whole blood were dispensed into each well of 96-well culture plate containing 5 μl of the priming agent, lipopolysaccharide (LPS) at a final concentration of 1 μg/ml. […] After further incubation for 15 min at 37° C., 5 μl of N-formylmethionyl-leucyl-phenylalanine (FMLP), at […] final concentration, was added to stimulate LT production. The reaction was stopped after 15 min, and the supernatants recovered by centrifugation and stored at −40° C. pending analysis of the LTB4 content.
(§1) Assay of released leukotrienes/β-hexoseaminidase enzyme: Appropriately diluted supernatants were assayed for the released LTs (LTB4 and LTC4), by the enzyme immunoassay (EIA) method using assay kits supplied by R&D Systems (Minneapolis, Minn., USA) and following the manufacturer's instructions.

Data set [3] relates to LTC4 release from isolated human monocytes. Kind of data set: Inhibition of LTC4 release from isolated human monocytes (A23187-stimulated). Type of data set: cell-based. The following applies: read-out: Inhibitory Activity IC50, Human monocyte LTC4. On the procedure: Inhibition of LTC4 release from isolated human monocytes: Mononuclear cells were first isolated from heparinized fresh blood using the Ficoll-Hypaque gradient centrifugation method. Monocytes were subsequently purified by adherence to plastic according to standard protocols. The purity of the adherent monocytes (CD14+) was routinely confirmed by flow cytometry to be >95% and viability (by trypan blue exclusion method) was routinely >97%. Adherent monocytes were then washed and incubated in 190 μl culture medium RPMI-1640 supplemented with 100 U/ml penicillin, 100 μg/ml streptomycin and 10% heat-inactivated fetal bovine serum (Sigma-Aldrich, St Louis, Mo., USA). […] After a further incubation for 15 min, the culture supernatants were recovered by centrifugation and stored at −40° C. pending LTC4 determination.
as §1

For data set [4], the system named is LTC4 release from IgE/antigen-activated mouse mast cells (BMMC). The data set is described as follows: Inhibition of LTC4 release in allergen/IgE-activated bone marrow-derived mouse mast cells. Type of data set: cell-based. The following applies: IgE/antigen (DNP-BSA)-activated BMMC, read-out: Inhibitory Activity IC50, Mouse mast cell LTC4.
Source text: Inhibition of LTC4 release and degranulation in allergen/IgE-activated bone marrow-derived mouse mast cells (BMMC): Bone marrow-derived mast cells (BMMC) were generated from pathogen-free 5-7 week old male Balb/c mice according to the method of Davis et al., [2004] (Davis, B. J., et al., (2004), Journal of Immunology, 173: 6914-6920). Essentially, bone marrow cells were obtained by flushing of the femoral bone marrow and cultured in RPMI 1640 medium supplemented with 10% FBS, 100 U/ml penicillin, and 100 μg/ml streptomycin, 25 mM HEPES, 1.0 mM sodium pyruvate, 0.1 mM nonessential amino acids, 0.0035% 2-mercaptoethanol, and 30 ng/ml mouse recombinant IL-3, with culture medium replaced every two days. Cells were used after 4-8 weeks of culture, by which time at least 97% of the cells would have differentiated into mast cells.
The generated BMMCs were seeded at 5×10^4 cells/well in a 96-well flat-bottom culture plate and passively sensitized overnight with 0.5 μg/ml anti-DNP monoclonal IgE antibody (clone SPE-7, Sigma-Aldrich, St. Louis, Mo., USA). The cells were then washed twice to remove any unbound antibody and subsequently re-suspended in reaction buffer (135 mM NaCl, 5 mM KCl, 1.8 mM CaCl2), 1 mM MgCl2, 5.6 mM glucose, 0.05% BSA and 20 mM HEPES, pH 7.4). They were then pre-incubated with the test compounds (0.01-30 μM) or the solvent (0.05% DMSO) for 15 min before being stimulated with the specific antigen, DNP-BSA (30 ng/ml). After 30 min incubation at 37° C., the amount of LTC4 released into the supernatant (as index of 5-LO activity) was determined by ELISA as described below.
as §1

Setting [5] is: cell-free, recombinant human 5-LO, read-out: Inhibitory Activity IC50, Human recomb. 5-LO.

What is called IC50 is the concentration at which inhibition is half-maximal. As usually defined, the melting point is the temperature, or range, at which the solid turns liquid.

As for `CC(=O)N(O)C[C@H]1CN(c2ccc(N3CCOCC3)c(F)c2)C(=O)O1` [PH-23], the IC50 in data set [1] was over 30 µM; in data set [2], 3.3 µM; in data set [3] (Monocyte) it was 18.7 µM; in data set [4] (Mus musculus), 20.7 µM.
For `CCC(=O)N(O)C[C@H]1CN(c2ccc(N3CCOCC3)c(F)c2)C(=O)O1` [PH-199], the IC50 in data set [1] turned out to be 11.8 µM; in data set [2], 1.4 µM; in data set [3] (Monocyte), 8.2 µM; in data set [4] (Mus musculus), 6.3 µM.
`CC(C)C(=O)ON(C[C@H]1CN(c2ccc(N3CCOCC3)c(F)c2)C(=O)O1)C(=O)C(C)C` [PH-204]: the IC50 is over 30 µM in data set [1] (setting [5]), 10.7 µM in data set [2], over 50 µM in data set [3] (Monocyte) and 21.8 µM in data set [4] (Mus musculus).
Take `CC(C)C(=O)N(O)C[C@H]1CN(c2ccc(N3CCOCC3)c(F)c2)C(=O)O1` [PH-205]: the IC50 turned out to be 3.9 µM in data set [1], 2.3 µM in data set [2], 14.1 µM in data set [3] (Monocyte) and 13.8 µM in data set [4] (Mus musculus).
With `O=C(ON(C[C@H]1CN(c2ccc(N3CCOCC3)c(F)c2)C(=O)O1)C(=O)C1CC1)C1CC1` [PH-206], the IC50 in data set [1] (setting [5]) was over 30 µM; in data set [2], 7.9 µM; in data set [3] (Monocyte) it was over 50 µM; in data set [4] (Mus musculus), 37.3 µM.
As to `O=C(C1CC1)N(O)C[C@H]1CN(c2ccc(N3CCOCC3)c(F)c2)C(=O)O1` [PH-211], the IC50 in data set [1] was found to be 3.5 µM; in data set [2] it was 1.3 µM; in data set [3] (Monocyte), 7.5 µM; in data set [4] (Mus musculus) it was 8.7 µM.
`NC(=O)N(O)C[C@H]1CN(c2ccc(N3CCOCC3)c(F)c2)C(=O)O1` [PH-238, (R)-1-((3-(3-fluoro-4-morpholinophenyl)-2-oxooxazolidin-5-yl)methyl)-1-hydroxyurea] came in with a melting point of 125 to 128 °C. In data set [1] (setting [5]), the half-maximal inhibitory concentration (IC50) was 14.7 µM. Further, the IC50 in data set [2] came out at 7.9 µM. Besides, in data set [3] (Monocyte), the IC50 turned out to be 30.7 µM. Also, the IC50 in data set [4] (Mus musculus) was determined as 23.8 µM.
On to `CC(C)CC(=O)N(O)C[C@H]1CN(c2ccc(N3CCOCC3)c(F)c2)C(=O)O1` [PH-239, (R)—N-((3-(3-fluoro-4-morpholinophenyl)-2-oxooxazolidin-5-yl)methyl)-N-hydroxy-3-methylbutanamide], for which the melting point was in the range of 122 to 124.5 °C. Besides, the IC50 in data set [1] (setting [5]) was found to be 4.7 µM.
On the same counts, the results for `CCCCC(=O)N(O)C[C@H]1CN(c2ccc(N3CCOCC3)c(F)c2)C(=O)O1` [PH-241, (R)—N-((3-(3-fluoro-4-morpholinophenyl)-2-oxooxazolidin-5-yl)methyl)-N-hydroxypentanamide] are 121 to 122.5 °C and 3.3 µM.
For `O=C(C1CCCC1)N(O)C[C@H]1CN(c2ccc(N3CCOCC3)c(F)c2)C(=O)O1` [PH-244, (R)—N-((3-(3-fluoro-4-morpholinophenyl)-2-oxooxazolidin-5-yl)methyl)-N-hydroxycyclopentane-carboxamide], the melting point fell in the range of 164.5 to 166.5 °C.
`O=C(C1CCC1)N(O)C[C@H]1CN(c2ccc(N3CCOCC3)c(F)c2)C(=O)O1` [PH-245, (R)—N-((3-(3-fluoro-4-morpholinophenyl)-2-oxooxazolidin-5-yl)methyl)-N-hydroxycyclobutane-carboxamide] displayed a melting point of 132 to 133.5 °C.
For the molecule `CCCCCC(=O)ON(C[C@H]1CN(c2ccc(N3CCOCC3)c(F)c2)C(=O)O1)C(=O)CCCCC` [PH-246], the IC50 came out at 21.6 µM in data set [1] (setting [5]), 1.5 µM in data set [2], 7.1 µM in data set [3] and 3.3 µM in data set [4].
